# Experimental data published in ChEMBL document CHEMBL1154051, “Analysis of binding parameters of HIV-1 integrase inhibitors: correlates of drug inhibition and resistance” (Bioorg Med Chem, 2009).
# Biological target: Human immunodeficiency virus type 1 integrase (Human immunodeficiency virus 1, UniProt Q7ZJM1)
# Test: Inhibition of HIV1 integrase strand transfer activity
# Human immunodeficiency virus type 1 integrase, sequence (Q7ZJM1 whole entry): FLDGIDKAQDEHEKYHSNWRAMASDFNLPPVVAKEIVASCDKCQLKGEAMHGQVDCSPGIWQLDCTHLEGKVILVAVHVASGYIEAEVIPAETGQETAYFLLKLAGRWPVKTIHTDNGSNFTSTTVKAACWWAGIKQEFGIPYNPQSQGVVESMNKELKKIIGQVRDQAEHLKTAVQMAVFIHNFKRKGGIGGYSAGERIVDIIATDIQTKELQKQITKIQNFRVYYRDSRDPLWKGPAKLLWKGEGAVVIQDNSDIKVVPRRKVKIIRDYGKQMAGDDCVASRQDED
compound,measurement,value
O=C(NCc1ccc(F)cc1)c1ccc2cccnc2c1O,IC50,30 nM
O=C1c2c(c(C(=O)N3CCOCC3)c3cccnc3c2O)CN1Cc1ccc(F)cc1,IC50,40 nM
CN(C)S(=O)(=O)Oc1c2c(c(O)c3ncccc13)C(=O)N(Cc1ccc(F)cc1)C2,IC50,250 nM
O=C1c2c(c(-c3c(F)cccc3F)c3cccnc3c2O)CN1Cc1ccc(F)cc1,IC50,330 nM
COc1cnc2c(O)c3c(c(OC)c2c1)CN(Cc1ccc(F)cc1)C3=O,IC50,90 nM
O=C(O)/C(O)=C/C(=O)c1cccc(OCc2ccccc2)c1,IC50,350 nM
O=C(O)/C(O)=C/C(=O)c1cc(OCc2ccccc2)cc(OCc2ccccc2)c1,IC50,100 nM
O=C(O)/C(O)=C/C(=O)c1cccc(Br)c1,IC50,2500 nM
[N-]=[N+]=NCc1cccc(C(=O)/C=C(\O)C(=O)O)c1,IC50,330 nM
COc1ccc(Cc2cccc(C(=O)/C=C(\O)C(=O)O)c2)cc1,IC50,150 nM
O=C(O)/C(O)=C/C(=O)c1cccc(Cc2ccccc2F)c1,IC50,< 100 nM
CN(C)C(=O)C(=O)N(C)c1cc(C(=O)NCc2ccc(F)cc2)c(O)c2ncccc12,IC50,40 nM
O=C(O)/C(O)=C/C(=O)C1C=CSC1Cc1ccccc1 (stereo not drawn),IC50,180 nM
O=C(O)/C(O)=C/C(=O)c1cccc(Cc2ccc(Cl)cc2)c1,IC50,750 nM
O=C(O)/C(O)=C/C(=O)c1cccc(Cc2cccc(F)c2)c1,IC50,250 nM
CN1CCN(c2cc(C(=O)NCc3ccc(F)cc3)c(O)c3ncccc23)CC1,IC50,40 nM
CC(=O)N1CCN(c2cc(C(=O)NCc3ccc(F)cc3)c(O)c3ncccc23)CC1,IC50,20 nM
CC(=O)N(C)c1cc(C(=O)NCc2ccc(F)cc2)c(O)c2ncccc12,IC50,20 nM
O=C(O)/C(O)=C/C(=O)c1cccc(Cc2ccccc2Cl)c1,IC50,< 100 nM
O=C(O)/C(O)=C/C(=O)c1cccn1Cc1ccc(-c2ccccc2)cc1,IC50,7500 nM
COc1cccc(Cc2cccc(C(=O)/C=C(\O)C(=O)O)c2)c1,IC50,140 nM
O=C(O)/C(O)=C/C(=O)c1ccc(Oc2ccccc2)cc1,IC50,11400 nM
O=C(O)/C(O)=C/C(=O)c1cccn1Cc1ccccc1,IC50,220 nM
O=C(O)/C(O)=C/C(=O)c1ccn(Cc2ccccc2)c1,IC50,550 nM
O=C(O)/C(O)=C/C(=O)c1ccc(Cc2ccccc2)s1,IC50,500 nM
O=C(O)/C(O)=C/C(=O)c1cccc(Cc2cccc(Cl)c2)c1,IC50,< 100 nM
[N-]=[N+]=NCc1cc(CN=[N+]=[N-])cc(C(=O)/C=C(\O)C(=O)O)c1,IC50,460 nM
O=C(/C=C(\O)C(=O)O)C(=O)c1cccc(C(=O)c2ccccc2)c1,IC50,2400 nM
CC(=O)N(C)CCNc1cc(C(=O)NCc2ccc(F)cc2)c(O)c2ncccc12,IC50,30 nM
O=C(O)/C(O)=C/C(=O)c1cccn1CCCc1ccccc1,IC50,500 nM
O=C(O)/C(O)=C/C(=O)c1ccccc1Cc1ccccc1,IC50,5670 nM
O=C(O)/C(O)=C/C(=O)c1cccc(Cc2ccc(F)cc2)c1,IC50,< 100 nM
O=C(O)/C(O)=C/C(=O)c1csc(Cc2ccccc2)c1,IC50,130 nM
